In test [1] the test system is mice pain induced by acetic acid. The test is described as follows: Analgesic test, mice writhing induced by acetic acid. The format is in vivo, Kunming mice. The settings on record: 200 mg/kg intragastric; within 15 min after 0.7% acetic acid. As to the method: 72 Kunming mice were randomly divided into 6 groups, with 12 mice for each group. (1) the blank normal control group (i.e. saline group, […]); (2) positive drug aspirin group (200 mg/kg); (3) ibuprofen group (300 mg/kg); (4) high dose group of phillygenin ibuprofen ester (300 mg/kg); (5) medium dose group of phillygenin ibuprofen ester (150 mg/kg); (6) low dose group of phillygenin ibuprofen ester (75 mg/kg). […] The number of mice writhings within 15 min after administration was recorded. The number of writhings was taken as the evaluation index to evaluate the analgesic effect.
For orientation: Writhing tests count abdominal constrictions after an irritant is injected.

Test [2] deals with rat toe swelling induced by carrageenan. The test can be described thus: Rat toe swelling induced by carrageenan. Format: in vivo, Wistar rats. The settings on record: 200 mg/kg sublingual intravenous injection. The method, then:
The test groups were administered by sublingual intravenous injection. Before the test, capillary magnification measurement method was used to measure the normal volume of the right hind foot of the rats in each group. To avoid errors, the measurement location was fixed and the operation was made by one person both before and after the administration. The average value of the two measurements was taken as the normal volume of the right hind foot of the rats before administration. […] The difference between the groups was compared by inter-group t test processing through the difference percentage (swelling ratio) of the paw volume before and after the induced rat inflammation.

Test [3] deals with rabbit fever induced by typhoid and paratyphoid vaccine. The test can be described thus: Rabbit fever induced by typhoid and paratyphoid vaccine. The format is in vivo, Japanese white rabbits. The settings on record: 50 mg/kg. As to the method: Japanese male big-ear white rabbits, weighing 1.5-2.0 kg. Before the test, WSC-411P portable digital thermometer was used to measure the normal rectal temperature twice (with certain interval for each time), and the average value was taken as the normal body temperature. Then 48 Japanese big-ear white rabbits with body temperature of 38-39.6° C. were selected and randomly divided into 8 groups by weight, namely: the blank control (normal saline) group, the model control (0.5% carboxymethylcellulose) group, the ibuprofen group (300 mg/kg), the phillygenin group (10 mg/kg), the 1.25, 2.5, and 5 mg/kg phillygenin ibuprofen ester groups and the positive drug paracetamol (50 mg/kg) group. The rabbits were fixed in a fixator. The blank control group was intravenously injected with normal saline of 1 ml/kg via the ear margin; The model control group and the drug groups were intravenously injected with typhoid and paratyphoid vaccines of 0.8 ml/kg via the ear margin. When the body temperature rise of the rabbits was greater than 1° C. (requiring about 1-1.5 h, which was restricted to 1 h in this test), the blank control group and the model group were administered intragastrically with 0.5% carboxymethycellulose of 1 ml/kg, and the drug groups were administered intragastrically with phillygenin ibuprofen ester and paracetamol. […]

The test system of test [4] is beer yeast induced rat fever. The test is described as follows: Beer yeast induced rat fever. The settings on record: 100 mg/kg. The format is in vivo, Wistar rats. The method, then:
Male Wistar rats were selected, weighing 180-200 g. Before the test, WSC-411P portable digital thermometer was used to measure the normal rectal temperature twice (with certain interval for each time), and the average value of the two measurements was taken as the normal body temperature of the rat. Then 70 rats with the body temperature between 36.5° C. and 38° C. were chosen to be randomly divided into 7 groups by weight: the model (0.5% carboxymethylcellulose) group, the 2.5, 5, and 10 mg/kg phillygenin ibuprofen ester groups, the positive drug paracetamol (100 mg/kg) group, the ibuprofen group (i.e. prodrug control group, 300 mg/kg), the phillygenin group (100 mg/kg), with 10 rats for each group. Each group of rats were subjected to back subcutaneous injection with 10% fresh beer yeast suspension of 10 ml/kg to induce heat. After administration of 10% fresh beer yeast suspension for 6.0 h, phillygenin ibuprofen ester and paracetamol were both subjected to intragastric administration, and the model group was intragastrically administrated with equal volume of 0.5% carboxymethylcellulose. Rectal temperature was measured after 1 h, 2 h, 3 h and 4 h of the administration respectively. Changes in the body temperature were observed and difference between the groups was compared by inter-group t test processing through antipyretic percentage.

Test [5] has as its system sweat secretion of rat paw part. The test can be described thus: Sweat secretion of rat paw part (coloring method). The format is in vivo, Wistar rats. The settings on record: 35.0 mg/kg subcutaneous; for Animal number of sweat points of level +: + = sweat area below about 10%; for Animal number of sweat points of level ++: ++ = sweat area about 11-40%; for Animal number of sweat points of level +++: +++ = sweat area about 41-70%; for Animal number of sweat points of level ++++: ++++ = sweat area over 71%; for Animal number of sweat points of level −: − = no sweat point. The text has this: This test was designed to observe the change of sweat secretion based on the mechanism that sweat gland is distributed on the rat paw pads, and iodine and starch can have purple reaction when encountered with sweat. In the test, 350 Wistar rats were selected, with equal male and female number, weighing 120-150 g. […] The rats were placed in a self-made rat fixation bag, with the double hind limbs exposed. The dirts on the right paw was gently scrubbed clean with the cotton swab dipped with anhydrous ethanol. Besides that subcutaneous injection was used for the pilocarpine solution, intragastric administration was used for all the other groups. […] When the test was complete, statistical process was carried out according to the rank-sum test with two-sample comparison, in order to compare the difference between the groups.

Test [6] relates to sweat gland epithelial cells at the rat toe part. The test is described as follows: Sweat secretion of rat paw part (tissue morphology observation method). Format: in vivo, Wistar rats. The settings on record: rat toe part; 35.0 mg/kg subcutaneous. The text has this:
This test was based on the mechanism that when rat sweat gland is excited, in addition to sweat secretion increase, the morphology of sweat gland epithelial cell is also changed. The number increase and expansion of empty cells of the sweat gland epithelial cells can be seen under the optical microscope. Such enlarged vacuole presents mitochondrial in sweat gland epithelial cells swelling, rupture, fusion and secretory vesicle enlargement under the electron microscope, and through the morphological observation of the sweat gland epithelial cell at the rat paw part, the secretory activity of the sweat gland can be known. In the test, 70 Wistar rats were selected, with equal male and female number, weighing 120-160 g. […] Besides that subcutaneous injection was used for the pilocarpine solution, intragastric administration was used for all the other groups.

[7] abbreviates: time after administration (min) 30.
Setting [8] is: time after administration (min) 60.
The mark [9] stands for this setting: time after administration (min) 90.
Setting [10] is: time after administration (min) 120.
[11] abbreviates: time after administration (min) 180.
[12] abbreviates: after coating B liquid for 1 minute.
Setting [13] is: after coating B liquid for 5 minutes.
The mark [14] stands for this setting: after coating B liquid for 10 minutes.
Setting [15] is: after coating B liquid for 15 minutes (Table 2-4).
[16] abbreviates: after coating B liquid for 15 minutes (Table 2-5).

Marks after values point to notes of the source that are not given here.

With `CC(=O)Oc1ccccc1C(=O)O` [Aspirin], the Writhing times in test [1] is on record as 5.0*. Further, the “Swelling ratio (%)” value in test [2] (30 min) was determined as 0.120 ± 0.138 %; in test [2] (60 min), 0.168 ± 0.172 %; in test [2] (120 min), 0.215 ± 0.178 %; in test [2] (180 min) it was 0.343 ± 0.337 %; in test [2] (240 min) it was 0.470 ± 0.289 %; in test [2] (300 min) it was 0.690 ± 0.369%. In addition, the “Swelling ratio (%)” value in test [2] (360 min) amounted to 0.525 ± 0.338 %.

As to `CC(=O)Nc1ccc(O)cc1` [Paracetamol], the “Body temperature (° C.)” value in test [3] (setting [7]) was determined as 40.53 ± 0.68 °C; in test [3] (setting [8]) it was 40.10 ± 0.48 °C; in test [3] (setting [9]), 39.83 ± 0.57 °C; in test [3] (setting [10]) it was 39.72 ± 0.54 °C; in test [3] (setting [11]), 39.61 ± 0.48 °C; in test [4] (1 h after administration) it was 38.66 ± 0.58 °C. Also, the entries for the “Body temperature (° C.)” value in test [4] (2 h after administration), in test [4] (3 h after administration) and in test [4] (4 h after administration) were 38.19 ± 0.59 °C, 37.98 ± 0.19 °C and 37.84 ± 0.32 °C, respectively. Further, the “antipyretic percentage (%)” value in test [3] (setting [7]) is recorded as −1.14 ± 0.59 %; in test [3] (setting [8]) it was −2.18 ± 0.16 %; in test [3] (setting [9]) it was −2.83 ± 0.16 %; in test [3] (setting [10]), −3.11 ± 0.29 %; in test [3] (setting [11]), −3.38 ± 0.25 %; in test [4] (1 h after administration), −2.07 ± 0.54 %. Moreover, the “antipyretic percentage (%)” value in test [4] (2 h after administration) is listed as −3.27 ± 0.77 %; in test [4] (3 h after administration), −3.80 ± 1.43 %; in test [4] (4 h after administration) it was −4.15 ± 1.59 %.

For the compound `CC[C@@H]1C(=O)OC[C@@H]1Cc1cncn1C` [Pilocarpine], in test [5] (setting [12]), the “Animal number of sweat points of level +” value came out at 1, the “Animal number of sweat points of level ++” value is 3, the “Animal number of sweat points of level +++” value stood at 1 and the “Animal number of sweat points of level ++++” value (“Animal number … of level ++++” below) is on record as 5. For the same compound, in test [5] (setting [12]), the “Animal number of sweat points of level −” value was 0. Moreover, in test [5] (setting [13]), the “Animal number of sweat points of level +” value is reported as 1, the “Animal number of sweat points of level ++” value was 2, the “Animal number of sweat points of level +++” value was 1 and the “Animal number … of level ++++” value is given as 6. Besides, in test [5] (setting [13]), the “Animal number of sweat points of level −” value is 0. Further, in test [5] (setting [14]), the “Animal number of sweat points of level +” value is 1, the “Animal number of sweat points of level ++” value is listed as 2, the “Animal number of sweat points of level +++” value is recorded as 1 and the “Animal number … of level ++++” value is 6. The “Animal number of sweat points of level −” value in test [5] (setting [14]) turned out to be 0. Besides, in test [5] (setting [15]), the “Animal number of sweat points of level +” value stood at 0, the “Animal number of sweat points of level ++” value was found to be 2, the “Animal number of sweat points of level +++” value was found to be 1 and the “Animal number … of level ++++” value was 6. Further, the “Animal number of sweat points of level −” value in test [5] (setting [15]) is listed as 0. Also, in test [5] (setting [16]), the “Animal number of sweat points of level +” value stood at 0, the “Animal number of sweat points of level ++” value is 2, the “Animal number of sweat points of level +++” value is given as 1 and the “Animal number … of level ++++” value was found to be 6. The “Animal number of sweat points of level −” value in test [5] (setting [16]) amounted to 0. For the same compound, in test [6], the “Number of sweat glands of vacuole” value is listed as 57 and the “Void fraction (%)” value is given as 27.40*** %.

The values above are taken from patent publication US9963461B2, “Phillygenin ibuprofen ester, preparation method therefor, and application thereof” (priority 2014, dated 2018).
